The results in this text go back to PMC3564010, “Exposure to Acetylcholinesterase Inhibitors Alters the Physiology and Motor Function of Honeybees” (Frontiers in Physiology, 2013).

In this experiment the test system is T1, AChE (honeybee gut lysate).
T1 construct: gene AChE-1; total AChE activity
The experiment is described as follows: Ellman assay, […] nm, Hill fit. It counts as biochemical, Apis mellifera mellifera. The following applies: gut homogenate; […] min incubation; […] acetylthiocholine iodide, […] DTNB; PBS.

Regarding `COc1cc2c(cc1OC)C(=O)C(CC1CCN(Cc3ccccc3)CC1)C2` (stereo not shown) [Donepezil], inhibition was half-maximal at 115 ± 5.86 nM (IC50).
